The values that follow come from ChEMBL document CHEMBL1143211, “Inhibitors of proteases and amide hydrolases that employ an alpha-ketoheterocycle as a key enabling functionality” (Bioorg Med Chem, 2008).

One assay deals with T1, Cathepsin K (Homo sapiens, UniProt P43235).
T1 sequence (P43235 whole entry): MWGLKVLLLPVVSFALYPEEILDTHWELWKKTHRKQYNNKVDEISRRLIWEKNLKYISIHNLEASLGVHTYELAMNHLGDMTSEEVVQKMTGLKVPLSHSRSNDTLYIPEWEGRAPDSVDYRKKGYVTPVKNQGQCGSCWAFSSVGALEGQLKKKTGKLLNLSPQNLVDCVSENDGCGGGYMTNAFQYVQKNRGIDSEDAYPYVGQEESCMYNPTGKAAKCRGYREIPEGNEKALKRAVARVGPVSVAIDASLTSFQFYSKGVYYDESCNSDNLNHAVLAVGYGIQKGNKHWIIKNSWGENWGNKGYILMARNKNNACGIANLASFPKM
Description: Inhibition of human recombinant cathepsin K.

The target of a further assay is Cathepsin B (Homo sapiens, UniProt P07858). Description: Inhibition of human liver cathepsin B.
In another assay the target is Cathepsin S (Homo sapiens, UniProt P25774). The assay is described as follows: Inhibition of human recombinant cathepsin S.
Chain of Cathepsin S (P25774 whole entry): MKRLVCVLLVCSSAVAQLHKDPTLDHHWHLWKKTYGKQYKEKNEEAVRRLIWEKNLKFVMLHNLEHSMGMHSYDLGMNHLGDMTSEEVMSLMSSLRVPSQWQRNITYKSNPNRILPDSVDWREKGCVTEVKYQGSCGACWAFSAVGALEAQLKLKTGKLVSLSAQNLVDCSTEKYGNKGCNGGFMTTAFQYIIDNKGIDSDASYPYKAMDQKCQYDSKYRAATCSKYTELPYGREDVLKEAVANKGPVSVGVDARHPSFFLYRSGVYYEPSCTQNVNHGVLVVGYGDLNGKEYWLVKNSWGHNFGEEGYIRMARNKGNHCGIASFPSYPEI
The next assay addresses Procathepsin L (Homo sapiens, UniProt P07711). Description: Inhibition of human recombinant cathepsin L.
Assay [1] in a line: Inhibition of human beta-tryptase.
Assay [2] is described as follows: Inhibition of bovine trypsin. Also noted: species or system Bos taurus.
Assay [3] in a line: Selectivity for rat FAAH over triacylglycerol hydrolase.
A further assay concerns the target Prolyl endopeptidase (Sus scrofa, UniProt P23687).
A further assay concerns the target Prothrombin (Homo sapiens, UniProt P00734). The assay is described as follows: Inhibition of human alpha-thrombin.
In assay [4] the target is T2, Fatty-acid amide hydrolase 1 (Rattus norvegicus, UniProt P97612).
T2 sequence (P97612 whole entry): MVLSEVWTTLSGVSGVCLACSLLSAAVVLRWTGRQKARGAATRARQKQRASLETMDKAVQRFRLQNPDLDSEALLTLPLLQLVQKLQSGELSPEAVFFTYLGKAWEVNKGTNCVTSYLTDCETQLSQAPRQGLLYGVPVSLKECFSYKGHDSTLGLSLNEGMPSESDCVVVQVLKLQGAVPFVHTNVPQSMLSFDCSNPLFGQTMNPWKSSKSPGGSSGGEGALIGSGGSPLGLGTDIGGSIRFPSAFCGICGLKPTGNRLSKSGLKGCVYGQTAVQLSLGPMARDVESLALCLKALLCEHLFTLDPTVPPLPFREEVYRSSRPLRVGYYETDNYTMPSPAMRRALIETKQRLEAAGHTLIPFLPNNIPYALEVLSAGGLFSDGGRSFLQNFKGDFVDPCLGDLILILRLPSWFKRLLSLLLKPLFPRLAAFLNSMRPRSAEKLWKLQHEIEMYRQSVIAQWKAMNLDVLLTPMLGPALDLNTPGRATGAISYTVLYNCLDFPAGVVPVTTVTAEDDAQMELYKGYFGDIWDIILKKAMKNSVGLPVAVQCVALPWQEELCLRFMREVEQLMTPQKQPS

Chain of Procathepsin L (P07711 whole entry): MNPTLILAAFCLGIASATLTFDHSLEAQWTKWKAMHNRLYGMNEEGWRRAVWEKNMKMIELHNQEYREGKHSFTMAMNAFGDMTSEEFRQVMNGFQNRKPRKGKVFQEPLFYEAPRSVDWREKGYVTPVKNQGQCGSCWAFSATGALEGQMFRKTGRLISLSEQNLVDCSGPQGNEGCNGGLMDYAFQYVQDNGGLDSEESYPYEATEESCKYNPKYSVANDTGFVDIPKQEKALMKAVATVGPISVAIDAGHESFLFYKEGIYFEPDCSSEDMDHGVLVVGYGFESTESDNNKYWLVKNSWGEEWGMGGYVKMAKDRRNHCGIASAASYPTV
Chain of Prolyl endopeptidase (P23687 whole entry): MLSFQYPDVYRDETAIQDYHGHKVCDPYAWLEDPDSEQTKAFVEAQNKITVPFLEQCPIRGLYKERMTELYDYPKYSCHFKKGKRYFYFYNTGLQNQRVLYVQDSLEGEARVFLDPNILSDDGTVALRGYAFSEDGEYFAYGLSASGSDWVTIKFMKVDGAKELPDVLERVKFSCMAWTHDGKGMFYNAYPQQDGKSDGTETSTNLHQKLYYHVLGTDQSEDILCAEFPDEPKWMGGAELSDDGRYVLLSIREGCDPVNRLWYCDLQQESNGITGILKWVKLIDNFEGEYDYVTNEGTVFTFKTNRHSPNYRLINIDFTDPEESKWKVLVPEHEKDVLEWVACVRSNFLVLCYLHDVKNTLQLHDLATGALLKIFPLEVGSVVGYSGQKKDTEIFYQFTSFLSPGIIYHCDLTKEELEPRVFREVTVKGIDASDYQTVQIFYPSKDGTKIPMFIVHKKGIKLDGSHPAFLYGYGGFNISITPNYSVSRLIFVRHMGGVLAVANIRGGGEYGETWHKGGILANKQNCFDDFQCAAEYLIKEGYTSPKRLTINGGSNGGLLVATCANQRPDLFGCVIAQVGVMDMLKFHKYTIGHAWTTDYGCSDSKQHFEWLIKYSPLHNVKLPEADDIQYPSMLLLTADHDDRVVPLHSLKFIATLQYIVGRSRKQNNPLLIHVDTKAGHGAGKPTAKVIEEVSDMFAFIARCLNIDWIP

By Ki is commonly meant a dissociation constant, usually derived from enzyme kinetics or from competition with a known ligand. As for `CCCC[C@H](NC(=O)OCC(C)C)C(=O)c1nnc(-c2ccco2)o1`, the Ki on Cathepsin K came to 500 nM; on Cathepsin B, 16000 nM; at Cathepsin S, 380 nM; on Procathepsin L, 14000 nM. Consider `CC[C@H](NC(=O)[C@H](CS(=O)(=O)Cc1ccccc1)OC(=O)N1CCOCC1)C(=O)c1nc2ccccc2o1`, for which the Ki at Cathepsin S was under 10 nM. Same read-out and setting: as for `CCCC[C@H](NC(=O)[C@H](CS(=O)(=O)Cc1ccccc1)NC(=O)N1CCOCC1)C(=O)c1nnc(-c2ccccc2)o1`, the figure is under 100 nM. Regarding `CCCC[C@H](NC(=O)CCc1ccccc1)C(=O)c1nnc(-c2ccco2)o1`, the Ki is 9600 nM at Cathepsin K, 25000 nM at Cathepsin B, 26000 nM at Cathepsin S and 100000 nM on Procathepsin L.

Consider `N=C(N)NCCC[C@H](NC(=O)[C@@H]1CCCN1C(=O)c1ccccc1)C(=O)c1nc2ccccc2s1`, for which the Ki in assay [1] is 250 nM; in [2] it was 160 nM. On to `CCCC[C@H](NC(=O)C(=O)[C@H](CC(C)C)NC(=O)OCc1ccccc1)C(=O)c1nnc(-c2ccco2)o1`, for which the Ki is under 0.25 nM at Cathepsin K, 2 nM at Cathepsin B, under 0.25 nM on Cathepsin S and 1 nM on Procathepsin L. Turning to `O=C(CCCCCCCCc1ccccc1)c1nnc(-c2ccccn2)o1`, in assay [3], the Selectivity ratio worked out at 600. For the compound `CCCCCCCC/C=C\CCCCCCCC(=O)c1nnc(-c2ccccn2)o1`, in assay [3], the Selectivity ratio is 5000.

The term IC50 denotes the concentration that gives 50% inhibition. The low end stands for greater potency, the high end for weaker potency. In the case of `O=C(c1nccs1)[C@@H]1CCCN1C(=O)[C@@H]1CCCN1CCCc1ccccc1`, at Prolyl endopeptidase, it took 5 nM to reach half-maximal inhibition (IC50).

With `CS(=O)(=O)N1CCC[C@H]1C(=O)N[C@@H](CCCNC(=N)N)C(=O)c1nc2ccccc2s1`, the Ki in [1] is 33 nM; in assay [2] it was 38 nM. As to `O=C(c1nc2ccccc2s1)[C@@H]1CCCN1C(=O)[C@@H]1CCCN1CCCc1ccccc1`, the IC50 on Prolyl endopeptidase was 4 nM. `O=C(c1nc2ccccc2s1)[C@@H]1CCCN1C(=O)[C@@H]1CCCN1OCc1ccccc1` showed a half-maximal inhibitory concentration (IC50) on Prolyl endopeptidase of 5.6 nM. For the compound `O=C(N[C@@H](CCc1ccccc1)C(=O)c1ncco1)[C@@H](CC(=O)N1CCOCC1)CC1CCCCC1`, the inhibition constant Ki at Cathepsin S is under 100 nM. For the compound `CCOC(=O)c1csc(C(=O)[C@H](CCCNC(=N)N)NC(=O)[C@@H]2CCCN2C(=O)[C@@H](Cc2ccccc2)NC)n1`, the figures for the Ki (on Prothrombin; in assay [2]) were 4.5 nM and 5.4 nM, respectively. Regarding `CC(C)C[C@H](NC(=O)C1CCNCC1)C(=O)N[C@@H](CCc1ccccc1)C(=O)c1nc2ccccc2o1`, the Ki on Cathepsin K was determined as 9.5 nM; on Cathepsin B, 2100 nM; at Procathepsin L, 30 nM.

In assay [2], `CN[C@H](Cc1ccccc1)C(=O)N1CCC[C@H]1C(=O)N[C@@H](CCCNC(=N)N)C(=O)c1nc2ccccc2n1C` returned an inhibitory constant (Ki) of 290 nM. As to `CCCCCCCCCCCC(=O)c1nc2ncccc2o1`, the Selectivity ratio in assay [3] was found to be 100. In assay [4], the Ki worked out at 0.57 nM. Turning to `CCCC(F)(F)C[C@H](NC(=O)N1CCOCC1)C(=O)N[C@@H](CC)C(=O)c1nc(C2CC2)no1`, the Ki at Cathepsin S is under 100 nM. On Prolyl endopeptidase, `O=C(c1ccccn1)[C@@H]1CCCN1C(=O)[C@@H]1CCCN1CCCc1ccccc1` registered an IC50 of 6.9 nM. That is a single-digit nanomolar value. In assay [2], `CN[C@H](Cc1ccccc1)C(=O)N1CCC[C@H]1C(=O)N[C@@H](CCCNC(=N)N)C(=O)c1nccn1C` returned a Ki of 5800 nM. For `O=C(C1=NCCS1)[C@@H]1CCCN1C(=O)[C@@H]1CCCN1CCCc1ccccc1`, the half-maximal inhibitory concentration (IC50) against Prolyl endopeptidase is 3.8 nM. Regarding `CCC[C@H](NC(=O)[C@@H](CC(=O)N1CCOCC1)CC(C)(C)C)C(=O)c1nc2ccccc2o1`, on Cathepsin S, the inhibition constant Ki was under 100 nM. `O=C(c1ncc[nH]1)[C@@H]1CCCN1C(=O)[C@@H]1CCCN1CCCc1ccccc1`: the IC50 at Prolyl endopeptidase stood at 9 nM. Take `CN[C@H](Cc1ccccc1)C(=O)N1CCC[C@H]1C(=O)N[C@@H](CCCNC(=N)N)C(=O)c1ccccn1`: the Ki in assay [2] came out at 73 nM. The compound `O=C(c1cscn1)[C@@H]1CCCN1C(=O)[C@@H]1CCCN1CCCc1ccccc1` gave an IC50 against Prolyl endopeptidase of 13 nM. Regarding `Cc1ccnc(-c2cnc(C(=O)CCCCCCc3ccccc3)o2)c1`, in [3], the Selectivity ratio was 2000. The same compound gave a Ki in assay [4] of 0.6 nM.

On Prolyl endopeptidase, `O=C(c1nc2ccccc2o1)[C@@H]1CCCN1C(=O)[C@@H]1CCCN1CCCc1ccccc1` came in with an IC50 of 5.6 nM.
